Blank lines part the entries; values can stand above or below the compound they belong to. Activity calls are given as the source filed them. The rule behind the calls is not given here.
How the values were obtained:
[1] = Solubility of compound in water at 10 mM after 30 mins; format: physicochemical; conditions: buffer, 0.5 h, 10000 µM
[2] = Solubility of compound in water at 50 mM after 30 mins; format: physicochemical; conditions: buffer, 0.5 h, 50000 µM
[3] = Solubility of compound in water at < 50 mM after 30 mins; format: physicochemical; conditions: buffer, 0.5 h
[4] = target: T1, Cyclin-dependent kinase 8 (Homo sapiens, UniProt P49336); assay: Inhibition of human CDK8 (M1 to T360 residues) expressed in bacterial expression system at 2000 nM by KINOMEscan assay relative to control
[5] = Toxicity in BALB/c mouse assessed as body weight gain at 40 mg/kg, ip administered with 5 daily doses and 2 days off and another 5 daily dosing schedule for 12 days; format: organism-based; conditions: in vivo, 288 h, time 12 day
[6] = Toxicity in BALB/c mouse assessed as decrease in kidney weight at 40 mg/kg, ip administered with 5 daily doses and 2 days off and another 5 daily dosing schedule for 12 days; format: organism-based; conditions: in vivo, 288 h, time 12 day
[7] = target: T1, Cyclin-dependent kinase 8; assay: Inhibition of CDK8 (unknown origin) by Pro-Qinase assay
MDA-MB-231 [8] = assay: Antitumor activity against human MDA-MB-231 cells xenografted in SCID mouse assessed as reduction in tumor growth at 40 mg/kg, ip administered as 5 daily doses; format: functional, organism-based
4T1 = assay: Growth inhibition of mouse 4T1 cells at 0.078 to 10 uM after 5 days by MTT assay; format: functional, cell-based; conditions: dose 0.078-10 µM, time 5.0 day
[9] = target: T1, Cyclin-dependent kinase 8; assay: Inhibition of CDK8 in human HT1080 cells assessed as inhibition of IPTG-inducible p21 induced CMV-GFP expression by Hoechst 33342 staining-based fluorescence assay; format: cell-based; conditions: HT-1080
MDA-MB-231 [10] = assay: Additive antitumor activity against human MDA-MB-231 cells xenografted in SCID mouse assessed as reduction in tumor growth at 40 mg/kg, ip administered as 5 daily doses in presence of doxorubicin; format: functional, organism-based
MDA-MB-468 [11] = assay: Antitumor activity against human MDA-MB-468 cells xenografted in nude mouse assessed as non-invasive tumor growth at 40 mg/kg, ip administered daily for 30 days by H and E staining based histological analysis; format: functional, organism-based; conditions: time 30.0 day
[12] = Toxicity in BALB/c mouse assessed as decrease in lung weight at 40 mg/kg, ip administered with 5 daily doses and 2 days off and another 5 daily dosing schedule for 12 days; format: organism-based; conditions: in vivo, 288 h, time 12 day
[13] = target: Cyclin-dependent kinase 9 (Homo sapiens, UniProt P50750); assay: Inhibition of CDK9 (unknown origin)
[14] = AUC in rat at 40 mg/kg, ip; format: ADME, organism-based; set-up: dose 40 mg/kg; conditions: in vivo
[15] = Toxicity in BALB/c mouse assessed as decrease in thymus weight at 40 mg/kg, ip administered with 5 daily doses and 2 days off and another 5 daily dosing schedule for 12 days; format: organism-based; conditions: in vivo, 288 h, time 12 day
A549 = assay: Antitumor activity against human A549 cells xenografted in CB-17 SCID mouse assessed as reduction in tumor growth pretreated with compound at 40 mg/kg, ip administered 5 daily dose followed by tumor injection and monitored twice a week starting from 7 days after post tumor injection to 24 days by caliper method; format: functional, organism-based; conditions: time 24.0 day
MDA-MB-157 = assay: Growth inhibition of human MDA-MB-157 cells after 5 days by MTT assay; format: functional, cell-based; conditions: dose 0.078-10 µM, time 5.0 day
[16] = Toxicity in BALB/c mouse assessed as decrease in liver weight at 40 mg/kg, ip administered with 5 daily doses and 2 days off and another 5 daily dosing schedule for 12 days; format: organism-based; conditions: in vivo, 288 h, time 12 day
MDA-MB-468 [17] = assay: Antitumor activity against human MDA-MB-468 cells xenografted in mouse assessed as reduction in tumor growth at 40 mg/kg, ip by caliper method; format: functional, organism-based
[18] = Plasma concentration in mouse at 100 mg/kg administered via gavage; format: ADME, organism-based; conditions: in vivo, po
MDA-MB-468 [19] = assay: Antitumor activity against human MDA-MB-468 cells xenografted in mouse assessed as reduction in tumor growth pretreated with compound at 40 mg/kg, ip administered for 3 days followed by tumor injection by caliper method; format: functional, organism-based; conditions: time 3.0 day
[20] = Toxicity in BALB/c mouse assessed as decrease in spleen weight at 40 mg/kg, ip administered with 5 daily doses and 2 days off and another 5 daily dosing schedule for 12 days; format: organism-based; set-up: scale not given: the % may be the effect or the level left; conditions: in vivo, 288 h, time 12 day
MDA-MB-468 [21] = assay: Antitumor activity against human MDA-MB-468 cells xenografted in nude mouse assessed as reduction in tumor growth at 40 mg/kg, ip administered daily for 30 days in presence of doxorubicin by caliper method; format: functional, organism-based; conditions: time 30.0 day
MDA-MB-468 [22] = assay: Antitumor activity against human MDA-MB-468 cells xenografted in nude mouse assessed as non-invasive tumor growth at 40 mg/kg, ip administered daily for 30 days in presence of doxorubicin by H and E staining based histological analysis; format: functional, organism-based; conditions: time 30.0 day
MDA-MB-468 [23] = assay: Antitumor activity against human MDA-MB-468 cells xenografted in nude mouse assessed as reduction in tumor growth at 40 mg/kg, ip administered daily for 30 days by caliper method; format: functional, organism-based; conditions: time 30.0 day
[24] = Toxicity in mouse xenografted with human MDA-MB-231 cells assessed as reduction in body weight at 40 mg/kg administered as 5 daily doses; format: organism-based; conditions: in vivo
[25] = target: T1, Cyclin-dependent kinase 8; assay: Inhibition of CDK8 (unknown origin)
[26] = target: Cyclin-dependent kinase 19 (Homo sapiens) (UniProt Q9BWU1); assay: Inhibition of human […] (M1 to N360 residues) expressed in bacterial expression system at 2000 nM by KINOMEscan assay relative to control
[27] = Toxicity in BALB/c mouse assessed as decrease in lymphocytes count at 40 mg/kg, ip administered with 5 daily doses and 2 days off and another 5 daily dosing schedule for 12 days; format: organism-based; set-up: scale not given: the % may be the effect or the level left; conditions: in vivo, 288 h, time 12 day
[28] = target: T2, Catenin beta-1 (Homo sapiens) (UniProt P35222); assay: Inhibition of beta-catenin activity in human HCT116 cells assessed as reduction in TOPFlash promoter mediated luciferase expression; format: cell-based; conditions: HCT-116, dose […]
T2 sequence (whole entry): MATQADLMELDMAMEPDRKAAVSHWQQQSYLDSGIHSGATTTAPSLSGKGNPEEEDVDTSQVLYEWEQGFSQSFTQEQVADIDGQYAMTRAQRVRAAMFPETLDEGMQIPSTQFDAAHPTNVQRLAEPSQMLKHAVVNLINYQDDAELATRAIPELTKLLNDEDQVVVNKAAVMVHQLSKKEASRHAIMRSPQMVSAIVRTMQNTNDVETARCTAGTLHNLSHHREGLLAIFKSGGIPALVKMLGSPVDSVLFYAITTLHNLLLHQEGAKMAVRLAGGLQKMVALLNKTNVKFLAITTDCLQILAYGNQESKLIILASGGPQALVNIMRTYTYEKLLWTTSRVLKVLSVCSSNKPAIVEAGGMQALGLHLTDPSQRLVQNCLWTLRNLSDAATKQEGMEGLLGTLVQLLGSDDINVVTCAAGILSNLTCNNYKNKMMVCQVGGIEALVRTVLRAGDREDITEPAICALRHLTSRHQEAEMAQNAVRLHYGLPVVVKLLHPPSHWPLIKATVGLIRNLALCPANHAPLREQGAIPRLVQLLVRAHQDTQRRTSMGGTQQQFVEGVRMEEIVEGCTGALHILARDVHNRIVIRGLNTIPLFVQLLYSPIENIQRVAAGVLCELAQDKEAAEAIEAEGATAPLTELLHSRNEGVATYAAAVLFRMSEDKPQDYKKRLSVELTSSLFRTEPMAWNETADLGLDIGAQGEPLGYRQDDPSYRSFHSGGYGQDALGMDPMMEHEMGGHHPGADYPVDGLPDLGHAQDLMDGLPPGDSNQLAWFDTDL

MDA-MB-468 [29] = assay: Antitumor activity against human MDA-MB-468 cells xenografted in nude mouse assessed as slower appearance of palpable tumor pretreated with compound at 25 mg/kg, ip administered 5 daily dose followed by tumor injection and monitored every day; format: functional, organism-based
[30] = Toxicity in BALB/c mouse assessed as decrease in brain weight at 40 mg/kg, ip administered with 5 daily doses and 2 days off and another 5 daily dosing schedule for 12 days; format: organism-based; conditions: in vivo, 288 h, time 12 day
MDA-MB-468 [31] = assay: Growth inhibition of human MDA-MB-468 cells after 5 days by MTT assay; format: functional, cell-based; conditions: dose 0.078-10 µM, time 5.0 day
MDA-MB-468 [32] = assay: Antitumor activity against human MDA-MB-468 cells xenografted in nude mouse assessed as reduction in tumor growth at 4 mg/kg, ip administered daily for 30 days by caliper method; format: functional, organism-based; conditions: time 30.0 day
[33] = Toxicity in mouse xenografted with human MDA-MB-231 cells assessed as reduction in body weight at 1 mg/kg administered as single dose; format: organism-based; set-up: scale not given: the % may be the effect or the level left; conditions: in vivo
MDA-MB-231 [34] = assay: Antitumor activity against human MDA-MB-231 cells xenografted in SCID mouse assessed as reduction in tumor growth at 1 mg/kg, ip administered as single dose; format: functional, organism-based
MDA-MB-468 [35] = assay: Antitumor activity against human MDA-MB-468 cells xenografted in nude mouse assessed as invasive tumor growth at 4 mg/kg, ip administered daily for 30 days by H and E staining based histological analysis; format: functional, organism-based; conditions: time 30.0 day

T1 sequence (P49336 whole entry, the tested form may be a part): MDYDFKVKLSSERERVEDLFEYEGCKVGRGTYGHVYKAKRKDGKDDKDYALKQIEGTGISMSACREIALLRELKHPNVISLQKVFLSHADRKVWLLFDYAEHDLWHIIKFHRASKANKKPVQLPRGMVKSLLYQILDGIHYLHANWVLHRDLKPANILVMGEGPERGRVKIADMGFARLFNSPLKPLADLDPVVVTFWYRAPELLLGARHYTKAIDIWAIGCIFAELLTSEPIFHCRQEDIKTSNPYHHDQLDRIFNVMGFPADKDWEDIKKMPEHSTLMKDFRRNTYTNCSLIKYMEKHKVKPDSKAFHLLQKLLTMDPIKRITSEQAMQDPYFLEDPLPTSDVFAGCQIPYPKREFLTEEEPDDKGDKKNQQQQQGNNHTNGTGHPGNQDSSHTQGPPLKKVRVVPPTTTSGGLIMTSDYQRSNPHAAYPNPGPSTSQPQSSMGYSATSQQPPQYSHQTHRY
Cyclin-dependent kinase 19 (Homo sapiens), sequence (Q9BWU1 whole entry, the tested form may be a part): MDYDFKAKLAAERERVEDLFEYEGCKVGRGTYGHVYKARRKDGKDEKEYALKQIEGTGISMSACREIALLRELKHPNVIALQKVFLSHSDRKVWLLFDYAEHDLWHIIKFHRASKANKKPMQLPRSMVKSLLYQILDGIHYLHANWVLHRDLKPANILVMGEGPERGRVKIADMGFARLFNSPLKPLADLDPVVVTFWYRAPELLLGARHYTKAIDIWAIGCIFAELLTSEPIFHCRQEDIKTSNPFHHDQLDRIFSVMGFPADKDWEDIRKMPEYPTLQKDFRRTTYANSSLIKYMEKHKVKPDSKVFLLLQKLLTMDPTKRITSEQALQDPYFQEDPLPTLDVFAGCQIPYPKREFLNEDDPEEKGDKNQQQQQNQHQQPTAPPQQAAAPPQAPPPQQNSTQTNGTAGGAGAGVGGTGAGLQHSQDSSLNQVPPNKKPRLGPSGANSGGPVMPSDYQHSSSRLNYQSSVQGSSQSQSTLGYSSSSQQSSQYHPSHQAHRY
Cyclin-dependent kinase 9, sequence (P50750 whole entry): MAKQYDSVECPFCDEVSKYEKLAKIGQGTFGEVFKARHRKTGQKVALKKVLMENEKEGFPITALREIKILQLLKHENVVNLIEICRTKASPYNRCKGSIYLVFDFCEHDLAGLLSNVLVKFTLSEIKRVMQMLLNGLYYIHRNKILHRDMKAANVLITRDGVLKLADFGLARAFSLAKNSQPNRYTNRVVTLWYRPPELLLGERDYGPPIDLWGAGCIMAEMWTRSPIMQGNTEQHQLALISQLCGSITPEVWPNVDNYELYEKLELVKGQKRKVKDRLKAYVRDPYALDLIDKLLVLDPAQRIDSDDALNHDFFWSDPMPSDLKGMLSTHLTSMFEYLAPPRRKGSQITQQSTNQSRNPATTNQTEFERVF

- solubility [1]: Soluble
Compound: N#Cc1ccc2ncnc(NCCc3ccc(C(=O)N4CCOCC4)cc3)c2c1

- solubility [1]: Soluble
Compound: CN(C)CCNC(=O)c1ccc(CCNc2ncnc3ccc(C#N)cc23)cc1

- solubility [1]: Soluble
Compound: CN1CCN(C(=O)c2ccc(CCNc3ncnc4ccc(C#N)cc34)cc2)CC1

The next lines start with the compound.

Compound: N#Cc1ccc2ncnc(NCc3ccc(Cl)c(C(=O)N4CCOCC4)c3)c2c1
- solubility [2]: Soluble

Compound: CN(C)C(=O)c1ccc(CCNc2ncnc3ccc(C#N)cc23)cc1
- solubility [1]: Soluble

Compound: N#Cc1ccc2ncnc(NCCc3ccc(C(=O)N4CCC(N)C4)cc3)c2c1 (stereo not given)
- solubility [1]: Soluble

Compound: N#Cc1ccc2ncnc(NCCc3ccc4cc(C(=O)N5CCOCC5)ccc4c3)c2c1
- solubility [3]: Soluble

Compound: CN1CCN(C(=O)c2ccc3cc(CCNc4ncnc5ccc(C#N)cc45)ccc3c2)CC1 [SENEXIN B]
- inhibition [4]: 97.8%
- Activity [5]: Non-Toxic
- Activity [6]: Non-Toxic
- IC50 [7]: 24 nM
- Activity (MDA-MB-231 [8]): Active
- growth inhibition (GI) (4T1): inactive
- inhibition [9]: Active
- Activity (MDA-MB-231 [10]): Active
- Activity (MDA-MB-468 [11]): Active
- Activity [12]: Non-Toxic
- Kd [13]: Not Active
- AUC [14]: 14100 ng·h/mL
- Activity [15]: Non-Toxic
- Activity (A549): Active
- solubility [2]: Soluble
- growth inhibition (GI) (MDA-MB-157): Dose-Dependent Effect
- Activity [16]: Non-Toxic
- Activity (MDA-MB-468 [17]): Active
- concentration [18]: 50 µM
- Activity (MDA-MB-468 [19]): Active
- Activity [20]: 20%
- Activity (MDA-MB-468 [21]): Active
- Activity (MDA-MB-468 [22]): Active
- Activity (MDA-MB-468 [23]): Active
- Activity [24]: Non-Toxic
- Kd [25]: 140 nM
- inhibition [26]: 98.6%
- Activity [27]: 25%
- inhibition [28]: Dose-Dependent Effect
- Activity (MDA-MB-468 [29]): Active
- Activity [30]: Non-Toxic
- growth inhibition (GI) (MDA-MB-468 [31]): Dose-Dependent Effect

Compound: COCCNC(=O)c1ccc(CCNc2ncnc3ccc(C#N)cc23)cc1
- solubility [1]: Soluble

Compound: COc1cccc2c1C(=O)c1c(O)c3c(c(O)c1C2=O)C[C@@](O)(C(=O)CO)C[C@@H]3O[C@H]1C[C@H](N)[C@H](O)[C@H](C)O1 [DOXORUBICIN]
- Activity (MDA-MB-468 [32]): Active
- Activity [33]: 15%
- Activity (MDA-MB-231 [34]): Active
- Activity (MDA-MB-468 [35]): Active

Compound: CN1CCN(C(=O)c2cc(CNc3ncnc4ccc(C#N)cc34)ccc2Cl)CC1
- solubility [3]: Soluble
